# Test results as given in patent US11000033B2, “Ketone or oxime compound, and herbicide” (NISSAN CHEMICAL CORPORATION, priority 2014, dated 2021).
# Legend:
# Assay type in all cases: in vivo
# [1] = test system: directly sowed rice plant; assay: Test Example 3: effect on crop by foliage application, Wagner pot (symbol b); conditions: application herbicide amount 320 g/ha
# Procedure, shortened: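 Greenhouse culture at 25–30 °C of seeded rice, Cyperus difformis, Leptochloa chinensis and Echinochloa crus-galli var. crus-galli, in alluvial soil held under 0.1–0.5 cm of water in a Wagner pot.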
# Setaria viridis = assay: Test Example 4: herbicidal effect by soil treatment (symbol G); conditions: application herbicide amount 320 g/ha
# Procedure, shortened: (§1)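 Seeds were sown in sterilized diluvial soil, covered with about 1.5 cm of soil, and the soil surface was sprayed with a water-diluted emulsion of the compound at a predetermined rate. Plants grew in a greenhouse at 25° C. to 30° C.; effects were scored visually 3 weeks after application.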
# Alopecurus myosuroides = assay: Test Example 5: herbicidal effect by foliage application, plastic box (symbol J); conditions: 320 g/ha, 3 weeks after application
# Procedure, shortened: (§2)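 After sowing into sterilized diluvial soil and growing two weeks under glass at 25° C. to 30° C., seedlings receive a uniform foliar spray of diluted emulsion. Damage is judged visually three weeks on.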
# beet = assay: Test Example 5: effect on crop by foliage application, plastic box (symbol f); conditions: 320 g/ha, 3 weeks after application
# Procedure, shortened: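 Diluvial soil, sterilized and boxed (21 × 13 × 7 cm), received spot-sown seed covered by about 1.5 cm soil; plants were then greenhouse-grown at 25–30° C.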
# Abutilon theophrasti = assay: Test Example 5: herbicidal effect by foliage application, plastic box (symbol M); conditions: 320 g/ha, 3 weeks after application
# Procedure, shortened: as §2
# Lolium multiflorum Lam. [2] = assay: Test Example 5: herbicidal effect by foliage application, plastic box (symbol K); conditions: 320 g/ha, 3 weeks after application
# Procedure, shortened: as §2
# Veronica persica = assay: Test Example 4: herbicidal effect by soil treatment (symbol R); conditions: application herbicide amount 320 g/ha
# Procedure, shortened: as §1
# Lolium multiflorum Lam. [3] = assay: Test Example 4: herbicidal effect by soil treatment (symbol K); conditions: application herbicide amount 320 g/ha
# Procedure, shortened: as §1
# Stellaria media = assay: Test Example 5: herbicidal effect by foliage application, plastic box (symbol P); conditions: 320 g/ha, 3 weeks after application
# Procedure, shortened: as §2
# Chenopodium album [4] = assay: Test Example 4: herbicidal effect by soil treatment (symbol O); conditions: application herbicide amount 320 g/ha
# Procedure, shortened: as §1
# transplanted rice plant = assay: Test Example 1: effect on crop, application before weed generation in submerged conditions (symbol a); conditions: application herbicide amount 320 g/ha
# Procedure, shortened: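 Alluvial soil pots flooded to 4 cm water, sown with Echinochloa oryzacola, Scirpus juncoides and Monochoria vaginalis, then transplanted with 2.5 leaf stage rice seedlings; pre-emergence application. Greenhouse 25° C. to 30° C.; scored 0–5 by herbicidal ratio 3 weeks after application.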
# wheat = assay: Test Example 4: effect on crop by soil treatment (symbol e); conditions: application herbicide amount 320 g/ha
# Procedure, shortened: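 Greenhouse culture at 25° C. to 30° C. followed sowing of seed in spots on sterilized diluvial soil with a soil cover close to 1.5 cm thick.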
# Digitaria ciliaris [5] = assay: Test Example 5: herbicidal effect by foliage application, plastic box (symbol F); conditions: 320 g/ha, 3 weeks after application
# Procedure, shortened: as §2
# [6] = test system: Echinochloa crus-galli var. crus-galli; assay: Test Example 3: herbicidal effect by foliage application, Wagner pot (symbol H); conditions: application herbicide amount 320 g/ha
# Procedure, shortened: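 Rating at 3 weeks post-spray, by defined criteria. Treatment: emulsion diluted with water to a predetermined amount, applied evenly to foliage of 14-day-old plants raised in alluvial soil flooded 0.1–0.5 cm deep at 25–30 °C, rice co-sown.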
# Chenopodium album [7] = assay: Test Example 5: herbicidal effect by foliage application, plastic box (symbol O); conditions: 320 g/ha, 3 weeks after application
# Procedure, shortened: as §2
# Galium spurium = assay: Test Example 4: herbicidal effect by soil treatment (symbol Q); conditions: application herbicide amount 320 g/ha
# Procedure, shortened: as §1
# Digitaria ciliaris [8] = assay: Test Example 4: herbicidal effect by soil treatment (symbol F); conditions: application herbicide amount 320 g/ha
# Procedure, shortened: as §1
# Amaranthus retroflexus = assay: Test Example 4: herbicidal effect by soil treatment (symbol N); conditions: application herbicide amount 320 g/ha
# Procedure, shortened: as §1
smiles,measurement,setting,value
CON=C(C)CC1CC(OC(=O)COc2ccccc2)=C(c2c(C)cc(C)cc2OC)C1=O (stereo not drawn) [6-091],"effect on crop b (directly sowed rice plant), grade 0-5",[1],5 (Herbicidal ratio of 90% or more (almost completely withered))
same,"Herbicidal effect grade, G: Setaria viridis",Setaria viridis,5 (Herbicidal ratio of 90% or more (almost completely withered))
same,"J: Alopecurus myosuroides, herbicidal effect (criteria of Test Example 1)",Alopecurus myosuroides,5 (Herbicidal ratio of 90% or more (almost completely withered))
same,"f: beet, effect on crop (criteria of Test Example 1)",beet,3 (Herbicidal ratio of 40% or higher and lower than 70%)
same,"M: Abutilon theophrasti, herbicidal effect (criteria of Test Example 1)",Abutilon theophrasti,4 (Herbicidal ratio of 70% or higher and lower than 90%)
same,"K: Lolium multiflorum Lam., herbicidal effect (criteria of Test Example 1)",Lolium multiflorum Lam. [2],5 (Herbicidal ratio of 90% or more (almost completely withered))
same,"Herbicidal effect grade, R: Veronica persica",Veronica persica,4 (Herbicidal ratio of 70% or higher and lower than 90%)
same,"Herbicidal effect grade, K: Lolium multiflorum Lam.",Lolium multiflorum Lam. [3],5 (Herbicidal ratio of 90% or more (almost completely withered))
same,"P: Stellaria media, herbicidal effect (criteria of Test Example 1)",Stellaria media,4 (Herbicidal ratio of 70% or higher and lower than 90%)
same,"Herbicidal effect grade, O: Chenopodium album",Chenopodium album [4],3 (Herbicidal ratio of 40% or higher and lower than 70%)
same,"Effect grade on crop, a: transplanted rice plant",transplanted rice plant,5 (Herbicidal ratio of 90% or more (almost completely withered))
same,"Effect on crop grade, e: wheat",wheat,5 (Herbicidal ratio of 90% or more (almost completely withered))
same,"F: Digitaria ciliaris, herbicidal effect (criteria of Test Example 1)",Digitaria ciliaris [5],5 (Herbicidal ratio of 90% or more (almost completely withered))
same,"herbicidal effect on H (Echinochloa crus-galli var. crus-galli), grade 0-5",[6],5 (Herbicidal ratio of 90% or more (almost completely withered))
same,"O: Chenopodium album, herbicidal effect (criteria of Test Example 1)",Chenopodium album [7],3 (Herbicidal ratio of 40% or higher and lower than 70%)
same,"Herbicidal effect grade, Q: Galium spurium",Galium spurium,0 (Herbicidal ratio of 5% or lower (almost no effect))
same,"Herbicidal effect grade, F: Digitaria ciliaris",Digitaria ciliaris [8],5 (Herbicidal ratio of 90% or more (almost completely withered))
same,"Herbicidal effect grade, N: Amaranthus retroflexus",Amaranthus retroflexus,4 (Herbicidal ratio of 70% or higher and lower than 90%)
CON=C(C)CC1CC(O)=C(c2c(C)cc(OC)cc2C)C1=O (stereo not drawn) [6-055],"effect on crop b (directly sowed rice plant), grade 0-5",[1],5 (Herbicidal ratio of 90% or more (almost completely withered))
same,"G: Setaria viridis, herbicidal effect grade",Setaria viridis,5 (Herbicidal ratio of 90% or more (almost completely withered))
same,"J: Alopecurus myosuroides, herbicidal effect (criteria of Test Example 1)",Alopecurus myosuroides,5 (Herbicidal ratio of 90% or more (almost completely withered))
same,"f: beet, effect on crop (criteria of Test Example 1)",beet,0 (Herbicidal ratio of 5% or lower (almost no effect))
same,"M: Abutilon theophrasti, herbicidal effect (criteria of Test Example 1)",Abutilon theophrasti,1 (Herbicidal ratio of 5% or higher and lower than 20%)
same,"K: Lolium multiflorum Lam., herbicidal effect (criteria of Test Example 1)",Lolium multiflorum Lam. [2],5 (Herbicidal ratio of 90% or more (almost completely withered))
same,"R: Veronica persica, herbicidal effect grade",Veronica persica,0 (Herbicidal ratio of 5% or lower (almost no effect))
same,"K: Lolium multiflorum Lam., herbicidal effect grade",Lolium multiflorum Lam. [3],5 (Herbicidal ratio of 90% or more (almost completely withered))
same,"P: Stellaria media, herbicidal effect (criteria of Test Example 1)",Stellaria media,4 (Herbicidal ratio of 70% or higher and lower than 90%)
same,"O: Chenopodium album, herbicidal effect grade",Chenopodium album [4],0 (Herbicidal ratio of 5% or lower (almost no effect))
same,"Effect grade on crop, a: transplanted rice plant",transplanted rice plant,5 (Herbicidal ratio of 90% or more (almost completely withered))
same,"e: wheat, effect on crop grade",wheat,0 (Herbicidal ratio of 5% or lower (almost no effect))
same,"F: Digitaria ciliaris, herbicidal effect (criteria of Test Example 1)",Digitaria ciliaris [5],5 (Herbicidal ratio of 90% or more (almost completely withered))
same,"herbicidal effect on H (Echinochloa crus-galli var. crus-galli), grade 0-5",[6],5 (Herbicidal ratio of 90% or more (almost completely withered))
same,"O: Chenopodium album, herbicidal effect (criteria of Test Example 1)",Chenopodium album [7],3 (Herbicidal ratio of 40% or higher and lower than 70%)
same,"Q: Galium spurium, herbicidal effect grade",Galium spurium,0 (Herbicidal ratio of 5% or lower (almost no effect))
same,"F: Digitaria ciliaris, herbicidal effect grade",Digitaria ciliaris [8],5 (Herbicidal ratio of 90% or more (almost completely withered))
same,"N: Amaranthus retroflexus, herbicidal effect grade",Amaranthus retroflexus,0 (Herbicidal ratio of 5% or lower (almost no effect))
CON=C(C)CC1CC(O)=C(c2c(C)cc(C)cc2SC)C1=O (stereo not drawn) [6-075],"effect on crop b (directly sowed rice plant), grade 0-5",[1],4 (Herbicidal ratio of 70% or higher and lower than 90%)
same,"G: Setaria viridis, herbicidal effect grade",Setaria viridis,0 (Herbicidal ratio of 5% or lower (almost no effect))
same,"J: Alopecurus myosuroides, herbicidal effect (criteria of Test Example 1)",Alopecurus myosuroides,5 (Herbicidal ratio of 90% or more (almost completely withered))
same,"f: beet, effect on crop (criteria of Test Example 1)",beet,0 (Herbicidal ratio of 5% or lower (almost no effect))
same,"M: Abutilon theophrasti, herbicidal effect (criteria of Test Example 1)",Abutilon theophrasti,0 (Herbicidal ratio of 5% or lower (almost no effect))
same,"K: Lolium multiflorum Lam., herbicidal effect (criteria of Test Example 1)",Lolium multiflorum Lam. [2],5 (Herbicidal ratio of 90% or more (almost completely withered))
same,"R: Veronica persica, herbicidal effect grade",Veronica persica,0 (Herbicidal ratio of 5% or lower (almost no effect))
same,"K: Lolium multiflorum Lam., herbicidal effect grade",Lolium multiflorum Lam. [3],4 (Herbicidal ratio of 70% or higher and lower than 90%)
same,"P: Stellaria media, herbicidal effect (criteria of Test Example 1)",Stellaria media,0 (Herbicidal ratio of 5% or lower (almost no effect))
same,"O: Chenopodium album, herbicidal effect grade",Chenopodium album [4],0 (Herbicidal ratio of 5% or lower (almost no effect))
same,"Effect grade on crop, a: transplanted rice plant",transplanted rice plant,3 (Herbicidal ratio of 40% or higher and lower than 70%)
same,"e: wheat, effect on crop grade",wheat,0 (Herbicidal ratio of 5% or lower (almost no effect))
same,"F: Digitaria ciliaris, herbicidal effect (criteria of Test Example 1)",Digitaria ciliaris [5],1 (Herbicidal ratio of 5% or higher and lower than 20%)
same,"herbicidal effect on H (Echinochloa crus-galli var. crus-galli), grade 0-5",[6],3 (Herbicidal ratio of 40% or higher and lower than 70%)
same,"O: Chenopodium album, herbicidal effect (criteria of Test Example 1)",Chenopodium album [7],0 (Herbicidal ratio of 5% or lower (almost no effect))
same,"Q: Galium spurium, herbicidal effect grade",Galium spurium,0 (Herbicidal ratio of 5% or lower (almost no effect))
same,"F: Digitaria ciliaris, herbicidal effect grade",Digitaria ciliaris [8],0 (Herbicidal ratio of 5% or lower (almost no effect))
same,"N: Amaranthus retroflexus, herbicidal effect grade",Amaranthus retroflexus,0 (Herbicidal ratio of 5% or lower (almost no effect))
CON=C(C)CC1CC(O)=C(c2c(C)cc(-c3cc(F)c(F)c(F)c3)cc2C)C1=O (stereo not drawn) [6-104],"effect on crop b (directly sowed rice plant), grade 0-5",[1],5 (Herbicidal ratio of 90% or more (almost completely withered))
same,"Herbicidal effect grade, G: Setaria viridis",Setaria viridis,5 (Herbicidal ratio of 90% or more (almost completely withered))
same,"J: Alopecurus myosuroides, herbicidal effect (criteria of Test Example 1)",Alopecurus myosuroides,5 (Herbicidal ratio of 90% or more (almost completely withered))
same,"f: beet, effect on crop (criteria of Test Example 1)",beet,4 (Herbicidal ratio of 70% or higher and lower than 90%)
same,"M: Abutilon theophrasti, herbicidal effect (criteria of Test Example 1)",Abutilon theophrasti,5 (Herbicidal ratio of 90% or more (almost completely withered))
same,"K: Lolium multiflorum Lam., herbicidal effect (criteria of Test Example 1)",Lolium multiflorum Lam. [2],5 (Herbicidal ratio of 90% or more (almost completely withered))
same,"Herbicidal effect grade, R: Veronica persica",Veronica persica,4 (Herbicidal ratio of 70% or higher and lower than 90%)
same,"Herbicidal effect grade, K: Lolium multiflorum Lam.",Lolium multiflorum Lam. [3],1 (Herbicidal ratio of 5% or higher and lower than 20%)
same,"P: Stellaria media, herbicidal effect (criteria of Test Example 1)",Stellaria media,4 (Herbicidal ratio of 70% or higher and lower than 90%)
same,"Herbicidal effect grade, O: Chenopodium album",Chenopodium album [4],4 (Herbicidal ratio of 70% or higher and lower than 90%)
same,"Effect grade on crop, a: transplanted rice plant",transplanted rice plant,5 (Herbicidal ratio of 90% or more (almost completely withered))
same,"Effect on crop grade, e: wheat",wheat,5 (Herbicidal ratio of 90% or more (almost completely withered))
same,"F: Digitaria ciliaris, herbicidal effect (criteria of Test Example 1)",Digitaria ciliaris [5],5 (Herbicidal ratio of 90% or more (almost completely withered))
same,"herbicidal effect on H (Echinochloa crus-galli var. crus-galli), grade 0-5",[6],5 (Herbicidal ratio of 90% or more (almost completely withered))
same,"O: Chenopodium album, herbicidal effect (criteria of Test Example 1)",Chenopodium album [7],4 (Herbicidal ratio of 70% or higher and lower than 90%)
same,"Herbicidal effect grade, Q: Galium spurium",Galium spurium,4 (Herbicidal ratio of 70% or higher and lower than 90%)
same,"Herbicidal effect grade, F: Digitaria ciliaris",Digitaria ciliaris [8],5 (Herbicidal ratio of 90% or more (almost completely withered))
same,"Herbicidal effect grade, N: Amaranthus retroflexus",Amaranthus retroflexus,5 (Herbicidal ratio of 90% or more (almost completely withered))
